According to patent US6375961B1, “Cosmetic skin care compositions containing cumic alcohol” (Unilever Home & Personal Care (USA), division of Conopoco, …, priority 1999, dated 2002):

Assays:
Assay type in all cases: cell-based
human keratinocytes [1] = experiment: Transglutaminase (TG-1) assay in keratinocytes
Description: Normal human keratinocytes, isolated from neonatal foreskin by trypsin treatment, were grown in Dulbecco's Modified Eagles Medium (DMEM, Life Technologies. Grand Island, New York) with 10% fetal bovine serum in the 10 presence of irradiated mouse fibroblasts for establishing dividing keratinocyte colonies. Cells were incubated until their second passage and stored at −70 ° C. for future use. All incubations took place at 37 ° C. with 5% CO2. Frozen second passage keratinocytes were thawed and plated in T−175 flasks (Corning. Corning, N.Y.) with DMEM and grown for five days. After reaching 80% confluence, they were trypsinized and seeded into 6-well plates containing keratinocyte growth medium (KGM, Clonetics, San Diego, Calif.) with 0.15 mM calcium. Keratinocytes were placed in KGM (2 ml per well) at 0.2 million cells/plate in 6-well plates and grown for four or five days until the cells reached approximately 20% confluence. […] One set of triplicate wells was left untreated to serve as control. After three days of incubation, cells were washed thoroughly with phosphate buffered saline (PBS, 10 mM sodium phosphate, 138 mM sodium choride, 2.7 mM potassium chloride, pH 7.4) and placed at −70 °C. for 2 hours. Cells were then thawed for two hours. The DNA content of cells was quantified by using the DNA-binding fluorophore, bis-benzimidazole (Hoechst 33258) and measuring the specific fluoroescence of the DNA-bound fluorophore (360 nm excitation, 450 nm emission). Cellular TG-1 levels were determined by using a transglutaminase-1 (TG-1) specific monoclonal antibody as the primary antibody (BC1, Amersham, UK) and a peroxidase labeled rabbit antimouse IgG as the secondary antibody (Amersham, UK). The plates were blocked at room temperature with 5% nonfat milk in Tris-buffered saline (TBS, 10 mM Tris, 150 mM NaCL, pH 8.0) for one hour followed by two hours incubation with the primary antibody (1:4000 dilution) in 1% milk/TBS at room temperature. After rinsing the plates three times with 1% milk/TDS containing […] Tween 20 (Bio-Rad, Hercules, Calif.), the plates were incubated with a 1:4000 dilution of the secondary antibody at room temperature for two hours. The plates were then rinsed three times with 1% milk/0.05% Tween 20/TBS and three times with PBS. Color was developed by incubation with o-phenylene-diamine (Sigma, St. Louis. Mo.) and hydrogen peroxide (Sigma) dissolved in a 1:1 mixture of 0.2 M dibasic sodium phosphate (Sigma) and 0.1 M citric acid at pH 5.0(Sigma). Solutions were transferred to 4 ml plastic cuvets (Fisher Scientific, Pittsburgh Pa.) and the absorbance was read at 492 nm on an Ultraspec 3000 spectrophotometer (Pharmacia, Piscataway N.J.) and TG-1 levels were expressed as absorbence/DNA fluorescence. Concentrations used in the examples below are of cumic alcohol in a corn oil droplet. The in vitro concentration may not be relevant to in vivo concentration because there is partitioning between oil and culture medium and the medium concentration of the active is not The oil droplet concentration of the active. For the cumic alcohol to elicit its effect on the cultured cells, it must diffuse out of the corn oil into the culture medium where it is then accessible to the cells. The cumic alcohol concentration in the culture medium is therefore considerably less than the concentration in the corn oil droplet.

human keratinocytes [2] = experiment: Glucose uptake assay (3H 2-deoxy-glucose) in keratinocytes
Description: Normal human keratinocytes, isolated from neonatal foreskin by trypsin treatment, were grown in Dulbecco's Modified Eagles Medium (DMEM, Life Technologies. Grand Island, New York) with 10% fetal bovine serum in the 10 presence of irradiated mouse fibroblasts for establishing dividing keratinocyte colonies. Cells were incubated until their second passage and stored at −70 ° C. for future use. All incubations took place at 37 ° C. with 5% CO2. Frozen second passage keratinocytes were thawed and plated in T−175 flasks (Corning. Corning, N.Y.) with DMEM and grown for five days. After reaching 80% confluence, they were trypsinized and seeded into 6-well plates containing keratinocyte growth medium (KGM, Clonetics, San Diego, Calif.) with 0.15 mM calcium. Keratinocytes were plated in KGM medium at either 0.5 or 1 million cells/plate in six well plates and incuoated for 4 days. The medium was then aspirated, and the wells were rinsed twice with Phosphate Buffered Saline (PBS), then the plates were incubated (1 mL/well) for 24 hours. The medium was replaced with fresh KBM, 10 ul of corn oil containing cumic alcohol at various concentrations were added and cells were allowed to incubate (for 4 hours at 37C) before 2 μCi of ^3H 2-deoxy-glucose (Amersham, UK) were added to each well. Samples were then incubated for one hour. The medium was aspirated and wells were rinsed three times with PBS before the addition of 500 μL of 0.1N NaOH/well. After 10 minutes of agitation on a shaker, a 25 μL aliquot was removed for protein analysis, and 200 μL were transferred to a scintillation vial containing 5mL Scintillation cocktail (Scintiverse) and counting was performed on a Beckman counter, ^3H-Glucose uptake results were expressed as CPM/μg protein. Concentrations used in the examples below are of cumic alcohol in a corn oil droplet. The in vitro concentration may not be relevant to in vivo concentration because there is partitioning between oil and culture medium and the medium concentration of the active is not The oil droplet concentration of the active. For the cumic alcohol to elicit its effect on the cultured cells, it must diffuse out of the corn oil into the culture medium where it is then accessible to the cells. The cumic alcohol concentration in the culture medium is therefore considerably less than the concentration in the corn oil droplet.

human keratinocytes [3] = experiment: Ascorbate uptake assay (14C-ascorbic acid) in keratinocytes
Description: Normal human keratinocytes, isolated from neonatal foreskin by trypsin treatment, were grown in Dulbecco's Modified Eagles Medium (DMEM, Life Technologies. Grand Island, New York) with 10% fetal bovine serum in the 10 presence of irradiated mouse fibroblasts for establishing dividing keratinocyte colonies. Cells were incubated until their second passage and stored at -70 ° C. for future use. All incubations took place at 37 ° C. with 5% CO2. Frozen second passage keratinocytes were thawed and plated in T-175 flasks (Corning. Corning, N.Y.) with DMEM and grown for five days. After reaching 80% confluence, they were trypsinized and seeded into 6-well plates containing keratinocyte growth medium (KGM, Clonetics, San Diego, Calif.) with 0.15 mM calcium. For this experiment, third passage keratinocytes were plated into a KGM medium (Clonetics, Calif.) containing 0.15 mM calcium. […] Cells were then switched into fresh KBM and were treated with 5% cumic alcohol administered in corn oil (dosed 10 μl corn oil+active at indicated concentration/2 ml media). After 4 hours of incubation, 0.1 μCi/ml of L-^14C-1-ascorbic acid (Amersham, UK) and 50 units of ascorbic oxidase (Sigma) were added to each well and further incubated for 1 hour. The medium was aspirated and wells were rinsed 3 times with PBS before addition of 500 μl of 0.1N NaOH/well. After 10 minutes of agitation on shaker, 25 μL aliquot was removed for protein analysis, and 200 μl were transferred to scintillation vials containing 5 ml of […]. The counting was performed on a Beckman counter (model LS 5801). Ascorbic acid uptake results were expressed as CPM /μg protein. Concentrations used in the examples below are of cumic alcohol in a corn oil droplet. The in vitro concentration may not be relevant to in vivo concentration because there is partitioning between oil and culture medium and the medium concentration of the active is not The oil droplet concentration of the active. […]

human keratinocytes [4] = experiment: Lipid analysis (ceramides, TLC densitometry) in keratinocytes
[5] = Example 2, Experiment 1, cumic alcohol 2.5% in corn oil
[6] = Example 2, Experiment 1, cumic alcohol 5% in corn oil
[7] = Example 2, Experiment 2, cumic alcohol 2.5% in corn oil
[8] = Example 2, cumic alcohol at 2.5 and 5%
[9] = Example 4, inactivity at lower concentrations

CC(C)c1ccc(CO)cc1 [CUMIC ALCOHOL, p-isopropylbenzyl alcohol]
TG-1 % of CONTROL (human keratinocytes [1]; [5]): 117%
TG-1 % of CONTROL (human keratinocytes [1]; [6]): 180%
TG-1 % of CONTROL (human keratinocytes [1]; [7]): 145%
expression of transglutaminase-1 in comparison to untreated control cells (in words) (human keratinocytes [1]; [8]): increased expression
TG-1 % of CONTROL (human keratinocytes [1]; Example 4, cumic alcohol 1% in corn oil): 127%
TG-1 % of CONTROL (human keratinocytes [1]; Example 4, cumic alcohol 2.5% in corn oil): 174%
TG-1 % of CONTROL (human keratinocytes [1]; Example 4, cumic alcohol 5% in corn oil): 205%
transglutaminase-1 expression (in words) (human keratinocytes [1]; [9]): significant increase
glucose uptake % OF CONTROL (human keratinocytes [2]; cumic alcohol 1% in corn oil droplet): 107%
glucose uptake % OF CONTROL (human keratinocytes [2]; cumic alcohol 2.5% in corn oil droplet): 185%
glucose uptake % OF CONTROL (human keratinocytes [2]; cumic alcohol 5% in corn oil droplet): 206%
glucose uptake CPM/ug PROTEIN (human keratinocytes [2]; cumic alcohol 5% in corn oil droplet (10 ul), 4 h preincubation, 1 h uptake): 40.67 CPM/ug PROTEIN
ascorbate uptake % of CONTROL (human keratinocytes [3]; cumic alcohol 5% in corn oil): 129%
ascorbate uptake CPM/WELL (human keratinocytes [3]; cumic alcohol 5% in corn oil (10 ul/2 ml media), 4 h preincubation, 1 h uptake): 17235 +− CPM/WELL
uptake of ascorbate in comparison to untreated control cells (in words) (human keratinocytes [3]; cumic alcohol at 5% in corn oil): significantly increased uptake
ceramides % of CONTROL (human keratinocytes [4]; [5]): 67%
ceramides % of CONTROL (human keratinocytes [4]; [6]): 156%
ceramides % of CONTROL (human keratinocytes [4]; [7]): 166%
ceramides % of CONTROL (human keratinocytes [4]; Example 2, Experiment 2, cumic alcohol 5% in corn oil): 185%
expression of ceramides in comparison to untreated control cells (in words) (human keratinocytes [4]; [8]): increased expression
ceramide production (in words) (human keratinocytes [4]; [9]): significant increase
